Measurements: US20150051231A1, “SYNERGISTIC COMBINATIONS OF TRIAZOLES, STROBILURINS AND BENZIMIDAZOLES, USES, FORMULATIONS, PRODUCTION PROCESSES AND APPLICATIONS USING THE SAME” (FMC Quimica do Brasil Ltda., priority 2010, published 2015)
Where two headings read alike, the source gives them in different places.

What was measured:
Assay type in all cases: in vivo
Corynespora cassiicola = assay: Target spot severity in soybean 14 days after the third application (Table 5), Rondonópolis-MT; settings: for Severity (%) C. cassiicola: 14 days after the third application; for control of target spot (C. cassiicola) in soybean crops, in words: isolated use, PrioriXtra under conditions of high disease severity
From the text: (§1) In addition to these benefits, the association of the three fungicides—tebuconazole, carbendazim and azoxystrobin or tebuconazole, carbendazim and kresoxim-methyl provides greater safety regarding protection against the emergence of fungi resistant to fungicides and improved control spectrum.

Colletotrichum truncatum = assay: Anthracnose severity in soybean 14 days after the third application (Table 5), Rondonópolis-MT; settings: for Severity (%) C. truncatum: 14 days after the third application; for control of anthracnose (C. truncatum) in soybean crops, in words: isolated use, PrioriXtra under conditions of high disease severity
From the text: as §1

[1] = tested on: Phakopsora pachyrhizi Sydow; assay: Field trial, interactions of fungicides for control of Asian soybean rust, tebuconazole series (Tables 1 and 3), Rondonópolis-MT; settings: for control of rust (Phakopsora pachyrhizi Sydow) in soybean crops, in words: isolated use; for Control (%) Lower canopy, obtained by AUDPC / Control (%) Upper canopy, obtained by AUDPC: rates g/ha ai: Kresoxim-methyl 125, Azoxystrobin 30, Tebuconazole 100, Teb+Carb+Kresoxim 100 + 200 + 125, Teb+Carb+Azoxystrobin 100 + 200 + 30, Teb+Carb 100 + 200
From the text: (See Table 1 below), carbendazim even at a dose of 250 g/ha ai, and tebuconazole at the dose of 100 g/ha ai.
The association of azoxystrobin with the tebuconazole+carbendazim mixture (BF 488) provided a control efficacy gain and a residual control effect even under high pressure of Asian rust. […] The addition of azoxystrobin from 6 g/ha ai in the mixture of tebuconazole+carbendazim (100+200 g/ha ai, respectively) has already reflected in rust efficacy gain, providing control similar to the efficacy standard of azoxystrobin+cyproconazole (60+24 g/ha ai, respectively), and this product is marketed by Syngenta as PrioriXtra®. The addition of azoxystrobin in doses of 18, 24 and 30 g/ha ai together with tebuconazole+carbendazim was effective for obtaining yields higher than the market standard containing 60 g/ha of azoxystrobin.
The association of kresoxim-methyl with the tebuconazole+carbendazim mixture (BF 452) provided a control efficacy gain and a residual control effect even under high pressure of Asian rust. […] The addition of kresoxim-methyl from 75 g/ha ai in the mixture of tebuconazole+carbendazim (100+200 g/ha ai, respectively) has already reflected in rust efficacy gain, providing control similar to the efficacy standard of azoxystrobin+cyproconazole (60+24 g/ha ai, respectively), and this product is marketed by Syngenta as PrioriXtra®.
(§2) A study was prepared to analyze the interaction effect using the multiplicative model of distribution proposed by Colby (1967), using Equation 1 below to calculate the expected response: […]
(§3) wherein E is the expected reduction in disease development (such as the reduction in the percentage of expected control or the reduction in the area under the disease-progress curve), and x and y represent the reduction in disease development achieved by treatment with fungicide x and y, respectively.
The possible interaction responses are: • a) antagonism, which is characterized by joint action of two fungicides showing the response of a test organism in their combination that is lower than the expected response, obtained by appropriate reference models, as proposed by Colby (1967); • b) synergism, which is the cooperative action of two fungicides showing a response in the test organism on the joint application that is higher than the expected response obtained by appropriate reference models, and • c) additive, which occurs when two fungicides react by presenting a response in the test organism on the joint application that is equal to the expected response obtained by appropriate reference models.
To use the model proposed by Colby, the association tebuconazole+carbendazim (100+200, respectively) was established for a comparative test with azoxystrobin or kresoxim-methyl and a response of the type of interaction (see Table 3 below).

[2] = tested on: Phakopsora pachyrhizi Sydow; assay: Field trial, soybean rust AUDPC and yield (Table 6), Rondonópolis-MT
From the text: (§4) The association of azoxystrobin with the tebuconazole+carbendazim mixture provided high control efficacy of rust (see Table 6 below). […] The association of the three fungicides tebuconazole, carbendazim and azoxystrobin provides effective control of target spot (Corynespora cassiicola) and anthracnose (Colletotrichum truncatum) (see Table 5 above), and contains fungicides with three modes of action—carbendazim (benzimidazole)—acting on the integrity of tubulin; tebuconazole (triazole)—sterol synthesis inhibitors; azoxystrobin (strobilurin)—inhibits mitochondrial respiration.
as §4, with “of kresoxim-methyl” for “of azoxystrobin”, “6 above).” for “6 below).”, “and kresoxim-methyl” for “and azoxystrobin”, “[…] (strobilurin)-inhibits” for “azoxystrobin (strobilurin)—inhibits”

[3] = tested on: Phakopsora pachyrhizi Sydow; assay: Field trial, interactions of fungicides for control of Asian soybean rust, flutriafol series (Tables 2 and 4), Rondonópolis-MT; settings: for Control (%) Lower canopy, obtained by AUDPC / Control (%) Upper canopy, obtained by AUDPC: rates g/há ai: Kresoxim-methyl 125, Azoxystrobin 30, Flutriafol 62.5, Flut+Carb+Kresoxim 62.5 + 200 + 125, Flut+Carb+Azoxystrobin 62.5 + 200 + 30, Flut+Carb 62.5 + 200
Method: as §2, §3
Regarding the study of the interaction effect for the association of flutriafol+carbendazim+azoxystrobin and flutriafol+carbendazim+kresoxim-methyl, the model proposed by Colby was used.

[4] = tested on: Phakopsora pachyrhizi Sydow; settings: three preventive applications from R1
Method: This study was conducted to evaluate the efficacy of the products in the control of Asian soybean rust (Favorita). Preventive applications started in R1, the second application was made 19 days after the first (in R4) and the third application was made 15 days after the second (in R5.3). Emulsifiable mineral oil Assist was added at the dose of 0.5% v/v in all treatments, except for the PrioriXtra treatments, in which 0.5% v/v Nimbus was added. […] The efficacy of BF 452 and BF 465 is consistent, reducing the disease throughout the soybean plant canopy.

[5] = tested on: Phakopsora pachyrhizi Sydow; settings: three preventive applications from R1; remark: listed apart in the source
Method: This study was conducted to evaluate the efficacy of the products in the control of Asian soybean rust (Valiosa). Preventive applications started in R1, the second application was made 19 days after the first (in R5.1) and the third application was made 15 days after the second (in R5.5). Emulsifiable mineral oil Assist was added at the dose of 0.5% v/v in all treatments, except for the PrioriXtra treatments, in which 0.5% v/v Nimbus was added.

[6] = tested on: Phakopsora pachyrhizi Sydow; settings: three preventive applications from V9
Method: This study was conducted to evaluate the efficacy of the products in the control of Asian rust. The start of preventive applications in V9, the second application was made 20 days after the first (in R4) and the third application was made 15 days after the second. Emulsifiable mineral oil Assist was added, at the dose of 0.5% v/v in all treatments, except for the PrioriXtra treatments, in which 0.5% v/v Nimbus was added, and Fox, in which Aureo was added at the dose of 0.4 L/ha.

[7] = tested on: Phakopsora pachyrhizi Sydow; settings: three preventive applications from R1; remark: listed apart in the source
Method: This study was conducted to evaluate the efficacy of the products in the control of Asian soybean rust. Preventive applications started in R1, with the second application occurring 20 days after the first application and the third application 15 days after the second. Emulsifiable mineral oil Assist was added, at the dose of 0.5% v/v in all treatments, except for the PrioriXtra treatments, in which 0.5% v/v Nimbus was added, and Fox, in which Aureo was added at the dose of 0.4 L/ha.

CO/N=C(/C(=O)OC)c1ccccc1COc1ccccc1C [kresoxim-methyl, methyl(E)-methoxyimino[α-(o-tolyloxy)-o-tolyl]acetate]
Severity (%) C. cassiicola (Corynespora cassiicola; rate 125 g/ha a.i.): 22.3% | control of target spot (C. cassiicola) in soybean crops, in words (Corynespora cassiicola): not effective | Severity (%) C. truncatum (Colletotrichum truncatum; rate 125 g/ha a.i.): 19.5% | control of anthracnose (C. truncatum) in soybean crops, in words (Colletotrichum truncatum): not effective | control of rust (Phakopsora pachyrhizi Sydow) in soybean crops, in words [1]: not effective in controlling rust | AUPDC* Lower Canopy ([1]; rate 125 g/ha a.i.): 1146.0 | AUPDC* Upper Canopy ([1]; rate 125 g/ha a.i.): 978.0 | Productivity ([1]; rate 125 g/ha a.i.): 1349.0 kg/ha | Control (%) Lower canopy, obtained by AUDPC [1]: 13% | Control (%) Upper canopy, obtained by AUDPC [1]: 34% | AUPDC* Lower Canopy ([2]; rate 125 g/ha a.i.): 1245.9 | AUPDC* Upper Canopy ([2]; rate 125 g/ha a.i.): 1074.1 | Productivity ([2]; rate 125 g/ha a.i.): 1848.5 kg/ha | AUPDC* Lower Canopy ([3]; rate 125 g/ha a.i.): 1415.8 | AUPDC* Upper Canopy ([3]; rate 125 g/ha a.i.): 1261.3 | Productivity ([3]; rate 125 g/ha a.i.): 1479.5 kg/ha | Control (%) Lower canopy, obtained by AUDPC [3]: 18.0% | Control (%) Upper canopy, obtained by AUDPC [3]: 15.5%

CC(C)(C)C(O)(CCc1ccc(Cl)cc1)Cn1cncn1 (racemic) [tebuconazole, (RS)-1-p-chlorophenyl-4,4-dimethyl-3-(1H-1,2,4-triazol-1-ylmethyl)pentan-3-ol]
Severity (%) C. cassiicola (Corynespora cassiicola; rate 100 g/ha a.i.): 23.5% | control of target spot (C. cassiicola) in soybean crops, in words (Corynespora cassiicola): not effective | efficacy in controlling soybean rust, in words [4]: not effective in controlling soybean rust | efficacy in controlling soybean rust, in words [5]: not effective in controlling soybean rust | efficacy in controlling soybean rust, in words [6]: not effective in controlling soybean rust | Severity (%) C. truncatum (Colletotrichum truncatum; rate 100 g/ha a.i.): 30.0% | control of anthracnose (C. truncatum) in soybean crops, in words (Colletotrichum truncatum): not effective | control of rust (Phakopsora pachyrhizi Sydow) in soybean crops, in words [1]: not effective in controlling rust | AUPDC* Lower Canopy ([1]; rate 100 g/ha a.i.): 896.0 | AUPDC* Upper Canopy ([1]; rate 100 g/ha a.i.): 427.0 | Productivity ([1]; rate 100 g/ha a.i.): 2152.0 kg/ha | Control (%) Lower canopy, obtained by AUDPC [1]: 32% | Control (%) Upper canopy, obtained by AUDPC [1]: 71% | efficacy in controlling soybean rust, in words [7]: not effective in controlling soybean rust | AUPDC* Lower Canopy ([2]; rate 100 g/ha a.i.): 747.4 | AUPDC* Upper Canopy ([2]; rate 100 g/ha a.i.): 227.5 | Productivity ([2]; rate 100 g/ha a.i.): 2570.8 kg/ha

COC(=O)Nc1nc2ccccc2[nH]1 [carbendazim]
control of rust (Phakopsora pachyrhizi Sydow) in soybean crops, in words [1]: not effective in controlling rust | AUPDC* Lower Canopy ([1]; rate 250 g/ha a.i.): 261.0 | AUPDC* Upper Canopy ([1]; rate 250 g/ha a.i.): 1148.0 | Productivity ([1]; rate 250 g/ha a.i.): 1324.0 kg/ha | AUPDC* Lower Canopy ([2]; rate 250 g/ha a.i.): 361.8 | AUPDC* Upper Canopy ([2]; rate 250 g/ha a.i.): 247.5 | Productivity ([2]; rate 250 g/ha a.i.): 1323.7 kg/ha | AUPDC* Lower Canopy ([3]; rate 250 g/ha a.i.): 1576.3 | AUPDC* Upper Canopy ([3]; rate 250 g/ha a.i.): 1317.0 | Productivity ([3]; rate 250 g/ha a.i.): 1293.0 kg/ha

OC(Cn1cncn1)(c1ccc(F)cc1)c1ccccc1F (racemic) [flutriafol, (RS)-2,4′-difluoro-α-(1H-1,2,4-triazol-1-ylmethyl)benzhydryl alcohol]
Severity (%) C. cassiicola (Corynespora cassiicola; rate 62.5 g/ha a.i.): 22.5% | control of target spot (C. cassiicola) in soybean crops, in words (Corynespora cassiicola): not effective | Severity (%) C. truncatum (Colletotrichum truncatum; rate 62.5 g/ha a.i.): 31.3% | control of anthracnose (C. truncatum) in soybean crops, in words (Colletotrichum truncatum): not effective | control of rust (Phakopsora pachyrhizi Sydow) in soybean crops, in words ([3]; isolated use): not effective in controlling rust | AUPDC* Lower Canopy ([3]; rate 62.5 g/ha a.i.): 1312.6 | AUPDC* Upper Canopy ([3]; rate 62.5 g/ha a.i.): 1097.2 | Productivity ([3]; rate 62.5 g/ha a.i.): 1578.2 kg/ha | Control (%) Lower canopy, obtained by AUDPC [3]: 24.0% | Control (%) Upper canopy, obtained by AUDPC [3]: 26.5%
